Data: patent publication US20180156808A1, “METHODS FOR DIAGNOSIS AND PROGNOSIS OF CANCERS OF EPITHELIAL ORIGIN” (Children's Medical Center Corporation, priority 2004, published 2018)

Biological target: T1, ADAM 12-S (Homo sapiens, UniProt O43184)
T1 construct: The full-length human ADAM 12-S gene was cloned into plasmid (p1151); made in house; host or cells: Cos-7 cells (ATCC, CRL 1651)
T1 sequence (O43184 208-738 isoform O43184-2 limits assumed): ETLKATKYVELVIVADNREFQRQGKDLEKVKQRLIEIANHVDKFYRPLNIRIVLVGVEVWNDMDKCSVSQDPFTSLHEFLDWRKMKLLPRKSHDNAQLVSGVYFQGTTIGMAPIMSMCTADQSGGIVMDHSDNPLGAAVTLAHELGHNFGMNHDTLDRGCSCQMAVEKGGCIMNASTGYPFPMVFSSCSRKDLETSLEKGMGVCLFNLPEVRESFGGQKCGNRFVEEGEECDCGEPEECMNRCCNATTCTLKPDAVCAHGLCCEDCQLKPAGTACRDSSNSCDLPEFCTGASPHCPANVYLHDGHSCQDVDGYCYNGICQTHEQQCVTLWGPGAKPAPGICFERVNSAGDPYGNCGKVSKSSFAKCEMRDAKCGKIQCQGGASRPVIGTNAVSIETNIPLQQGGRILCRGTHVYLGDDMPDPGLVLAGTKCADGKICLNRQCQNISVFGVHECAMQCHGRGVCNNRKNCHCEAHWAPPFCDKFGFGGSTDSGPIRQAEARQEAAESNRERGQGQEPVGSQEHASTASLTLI
T1 sequence (O43184 29-207 partner limits assumed): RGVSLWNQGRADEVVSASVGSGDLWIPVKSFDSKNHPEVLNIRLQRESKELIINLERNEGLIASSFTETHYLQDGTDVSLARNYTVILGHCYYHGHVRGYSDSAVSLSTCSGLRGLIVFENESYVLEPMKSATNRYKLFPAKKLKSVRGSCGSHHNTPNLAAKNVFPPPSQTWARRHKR
Test: Inhibition of gelatin degradation by ADAM 12 (SDS-PAGE, Coomassie staining)
Assay type: biochemical
Details: ADAM 12 160 nM, 37° C., 18 h; for inhibition of gelatin degradation by ADAM 12: 30 μg gelatin
Description: The full-length human ADAM 12-S gene was cloned into plasmid (p1151) and transfection of Cos-7 cells (ATCC, CRL 1651) was conducted as previously described (5). Expressed recombinant ADAM 12-S secreted into the conditioned medium, was purified as previously described with minor modifications. Briefly, conditioned media from transfected Cos-7 cells was subjected to successive steps of SP Sepharose and ConA Sepharose chromatography as described (6). ADAM 12-S containing fractions from the ConA Sepharose column were pooled and after buffer exchange applied to a Vivapure H Mini Q column (VivaScience, Carlsbad, Calif.) pre-equilibrated with buffer A containing 0.05% CHAPS. Pure ADAM 12-S was detected in the flow-through fraction as determined by SDS-PAGE and immunoblot analysis.
Gelatin, Type IV collagen, fibronectin and casein-degrading activity of ADAM 12-S was measured as previously described (14). ADAM 12-S (1 μM) was mixed with non-reducing sample buffer and separated on a 10% polyacrylamide gel containing either 0.1% gelatin, 0.1% Type IV collagen or 0.02% fibronectin and a 12% polyacrylamide gel containing 0.1% casein. After electrophoresis, the gel was washed with 2.5% Triton X-100 for 30 min. Substrate digestion was conducted by incubating the gel in 50 mM Tris, pH 7.6, containing 5 mM CaCl2, 1 μM ZnCl2 and 0.02% NaN3 at 37° C. for 18 h. Gels were stained with 0.1% Coomassie and bands of enzyme activity were detected as zones of clearance on a background of uniform blue staining. […] For inhibition assays, ADAM 12 (160 nM) was incubated with 30 μg gelatin in assay buffer (50 mM Tris, pH 7.5) in the presence or absence of various inhibitors 5 mM 1, 10-phenanthroline, 5 mM EDTA, 1 mM Marimastat or two different concentrations (100 and 500 nM) of either TIMP-1, TIMP-2, TIMP-3 or TIMP-4 in a final volume of 30 μl at 37° C. for 18 h. Reactions were stopped with the addition of non-reducing sample buffer and the samples resolved by SDS-PAGE analysis followed by Coomassie staining.

[1] = inhibitor 100 and 500 nM (even at concentrations 5-fold higher than the enzyme)

Molecule: c1cnc2c(c1)ccc1cccnc12 [1, 10-phenanthroline]
- inhibition of gelatin degradation by ADAM 12 (inhibitor 5 mM): inhibited

Molecule: O=C(O)CN(CCN(CC(=O)O)CC(=O)O)CC(=O)O [EDTA]
- inhibition of gelatin degradation by ADAM 12 (inhibitor 5 mM): inhibited

Molecule: CNC(=O)[C@@H](NC(=O)[C@H](CC(C)C)[C@H](O)C(=O)NO)C(C)(C)C [Marimastat]
- inhibition of gelatin degradation by ADAM 12 (inhibitor 1 mM): partial inhibition

Molecule: TIMP-1: endogenous inhibitor
- inhibition of the gelatinase activity of ADAM 12 [1]: did not inhibit

B1: TIMP-4: endogenous inhibitor (protein, UniProt Q99727 30-224, looked up)
Metalloproteinase inhibitor 4: CSCAPAHPQQHICHSALVIRAKISSEKVVPASADPADTEKMLRYEIKQIKMFKGFEKVKDVQYIYTPFDSSLCGVKLEANSQKQYLLTGQVLSDGKVFIHLCNYIEPWEDLSLVQRESLNHHYHLNCGCQITTCYTVPCTISAPNECLWTDWLLERKLYGYQAQHYVCMKHVDGTCSWYRGHLPLRKEFVDIVQP
- inhibition of the gelatinase activity of ADAM 12 [1]: did not inhibit

B2: TIMP-3: endogenous inhibitor (protein, UniProt P35625 24-211, looked up)
Metalloproteinase inhibitor 3: CTCSPSHPQDAFCNSDIVIRAKVVGKKLVKEGPFGTLVYTIKQMKMYRGFTKMPHVQYIHTEASESLCGLKLEVNKYQYLLTGRVYDGKMYTGLCNFVERWDQLTLSQRKGLNYRYHLGCNCKIKSCYYLPCFVTSKNECLWTDMLSNFGYPGYQSKHYACIRQKGGYCSWYRGWAPPDKSIINATDP
- inhibition of the gelatinase activity of ADAM 12 (inhibitor 500 nM): effective inhibitor
